Values of other authors as cited in patent US20220288059A1, “NANOENCAPSULATED CANNABIDIOL” (Aphios Corporation, priority 2020, published 2022).

Columns and labels:
rats = details: i.v.
mice [1] = tested on: mice
rhesus monkeys = details: intravenously
mice [2] = details: intravenously
dogs = details: intravenously

C=C(C)[C@@H]1CCC(C)=C[C@H]1c1c(O)cc(CCCCC)cc1O [CBD, cannabidiol]
toxicity relative to Δ9-THC by LD50 (rats): less toxic than Δ9-THC
inhibition of cue-induced heroin-seeking behaviors (mice [1]): effectively inhibit cue-induced heroin-seeking behaviors
LD50 in rhesus monkeys (rhesus monkeys): 212 mg/kg
LD50 in mice (mice [2]): 50 mg/kg
anti-nociceptive effect, tail-flick test (Wistar rats): dose-dependent anti-nociceptive effects
LD50 in dogs (dogs): 254 mg/kg
